Test results reported in US11806401B2, “Prevention of drug-induced atrio-ventricular block” (SignPath Pharma Inc., priority 2016, dated 2023).

Tests used:
guinea pigs [1] = test: Effect of Fingolimod, verapamil and 14:0 lyso PG on QTc interval in instrumented guinea pigs; format: in vivo, guinea pig
[2] = system: normal subjects and cancer patients; test: Phase 1a and 1b clinical studies of liposomal curcumin (14:0 lyso PG); format: in vivo, human
Description: To date, 45 normal subjects and 28 cancer patients have been tested in Phase 1a and 1b (ongoing) studies, respectively.

guinea pigs [3] = test: Effect of Fingolimod, verapamil and 14:0 lyso PG on PR intervals / AV block in instrumented guinea pigs; format: in vivo, guinea pig
Experimental: PR intervals were measured following the infusion of Fingolimod. Measurements of PR were stopped when the P wave disconnected from the QRS complexes, indicating 3rd degree AV block.
Fingolimod was administered by intravenous infusion to instrumented guinea pigs at doses ranging from 3 μg/kg to 300 μg/kg (n=6, green series, above). The intravenous route of administration was selected because it simplified the pharmacokinetics of this multi-drug experiment.
Again, the intravenous route of administration for both drugs was selected to simplify the kinetics of the experiment.

guinea pigs [4] = test: Effect of single oral doses of Moxifloxacin on QTc interval of instrumented guinea pigs, without or with 14:0 lyso PG; format: in vivo, guinea pig
[5] = Prevention of drug-induced QTc prolongation in regulatory-validated preclinical models; format: in vivo; settings: against Moxifloxacin; Nilotinib; Crizotinib; Sotalol; Curcumin; Nifedipine; Lovastatin; Thioridazine; Amiodarone; Terfenadine; E4031; Felbamate; Gilenya; Quizartinib (AC220); Forskolin; Turmerone
IKr = IKr (Homo sapiens, UniProt Q12809); settings: cited from earlier work
IKr, sequence (Q12809 whole entry): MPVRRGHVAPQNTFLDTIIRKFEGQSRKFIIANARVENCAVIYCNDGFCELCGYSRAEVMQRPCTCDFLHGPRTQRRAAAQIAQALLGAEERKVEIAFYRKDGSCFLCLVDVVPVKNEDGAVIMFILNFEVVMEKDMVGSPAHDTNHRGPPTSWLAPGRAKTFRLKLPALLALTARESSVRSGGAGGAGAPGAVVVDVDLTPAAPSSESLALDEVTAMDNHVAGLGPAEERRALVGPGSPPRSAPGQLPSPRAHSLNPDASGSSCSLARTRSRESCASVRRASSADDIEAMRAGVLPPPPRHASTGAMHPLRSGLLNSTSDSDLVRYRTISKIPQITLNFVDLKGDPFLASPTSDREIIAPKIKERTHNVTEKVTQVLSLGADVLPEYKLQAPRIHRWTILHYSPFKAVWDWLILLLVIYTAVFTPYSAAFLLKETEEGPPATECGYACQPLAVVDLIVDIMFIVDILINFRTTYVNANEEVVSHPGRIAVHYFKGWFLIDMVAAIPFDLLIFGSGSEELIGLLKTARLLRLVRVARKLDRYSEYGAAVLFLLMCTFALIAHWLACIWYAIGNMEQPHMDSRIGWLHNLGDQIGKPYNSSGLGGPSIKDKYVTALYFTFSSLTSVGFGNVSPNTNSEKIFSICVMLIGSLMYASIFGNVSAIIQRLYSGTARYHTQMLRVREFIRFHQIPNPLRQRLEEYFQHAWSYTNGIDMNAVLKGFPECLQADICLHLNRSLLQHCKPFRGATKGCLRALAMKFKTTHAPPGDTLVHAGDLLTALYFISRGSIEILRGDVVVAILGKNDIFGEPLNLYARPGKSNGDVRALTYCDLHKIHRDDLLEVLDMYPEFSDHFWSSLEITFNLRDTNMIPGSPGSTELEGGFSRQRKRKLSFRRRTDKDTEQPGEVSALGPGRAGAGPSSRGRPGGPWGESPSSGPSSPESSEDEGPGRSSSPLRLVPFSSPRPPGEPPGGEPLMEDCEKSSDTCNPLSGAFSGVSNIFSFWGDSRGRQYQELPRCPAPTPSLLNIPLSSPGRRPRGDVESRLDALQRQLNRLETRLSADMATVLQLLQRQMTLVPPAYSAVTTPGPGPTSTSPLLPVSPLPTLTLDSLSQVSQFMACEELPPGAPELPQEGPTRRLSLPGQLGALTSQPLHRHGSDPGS

[6] = system: clinical volunteers and patients; settings: cited from earlier work
[7] = 14:0 lyso PG given orally prior to Fingolimod and/or verapamil
[8] = 0.5 mg/kg verapamil i.v. 60 minutes before Fingolimod infusion
[9] = intravenous infusion of Fingolimod alone
[10] = oral 1.0 mg/kg 14:0 lyso PG, then verapamil, then Fingolimod infusion

SMILES: CCCCCCCCCCCCCC(=O)OC[C@@H](O)COP(=O)(O)OCC(O)CO (mixture of isomers) [14:0 lyso PG, 1-myristoyl-2-hydroxy-sn-glycero-3-phospho-(1′-rac-glycerol)]
- change in cardiac electrophysiology (guinea pigs [1]; guinea pig, in vivo, po, 1 mg/kg): no change in cardiac electrophysiology
- QTc prolongation for any given dose of Fingolimod relative to verapamil+Fingolimod animals (guinea pigs [1]; oral 1.0 mg/kg 14:0 lyso PG, then 0.5 mg/kg verapamil i.v. at 60 min, Fingolimod i.v. at 120 min): ⅓
- Maximum Tolerated Dose (MTD) (guinea pigs [1]; oral gavage formulation): greater than the highest achievable dose in the oral formulation
- adverse effects ([2]; exposure levels used in the curcumin Phase 1a and Phase 1b clinical trials): devoid of adverse effects
- clinical efficacy against curcumin: QT and QTc interval prolongation ([2]; ongoing Phase 1b study, human patients): preventing QT and QTc interval prolongation
- tolerability in clinical trials ([2]; orally-administered): well-tolerated
- right-shift of the appearance of 3rd-degree AV block compared to Fingolimod alone (guinea pigs [3]; [7]): 13 fold
- right-shift of the appearance of 3rd-degree AV block compared to animals receiving both Fingolimod and verapamil (guinea pigs [3]; [7]): 6.6 fold
- changes in QTc (guinea pigs [4]; concomitant oral 14:0 lyso PG with Moxifloxacin, 14:0 lyso PG:Moxifloxacin ratio 0.45:1, n=6): no, or very little, changes in QTc
- shift in the QTc-dose response of Moxifloxacin (guinea pigs [4]; concomitant oral 14:0 lyso PG, ratio 0.45:1): statistically significant right-shift
- QTc prolongation by other drugs [5]: prevents

SMILES: CCCCCCCCc1ccc(CCC(N)(CO)CO)cc1 [Fingolimod]
- Fingolimod dose at 1st-degree AV block (guinea pigs [3]; [8]): 0.007 mg/kg
- Fingolimod dose at 3rd-degree dissociation between P waves and QRS complexes (guinea pigs [3]; [8]): 0.045 mg/kg
- Fingolimod dose at Mobitz-Type-1 2nd degree AV block (guinea pigs [3]; [8]): 0.01 mg/kg
- Fingolimod dose at 1st degree AV block (guinea pigs [3]; [9]): 0.015 mg/kg
- Fingolimod dose at 3rd degree AV block (guinea pigs [3]; [9]): 0.023 mg/kg
- Fingolimod dose at Mobitz Type-1, 2nd-degree AV block (guinea pigs [3]; [9]): 0.02 mg/kg
- Fingolimod dose at 1st-degree AV block (guinea pigs [3]; oral 1.0 mg/kg 14:0 lyso PG, 0.5 mg/kg verapamil i.v. 60 min later, Fingolimod infusion 60 min post-verapamil): 0.2 mg/kg
- Fingolimod dose at P-QRS dissociation, in the rest of the animals in the cohort (guinea pigs [3]; [10]): 0.3 mg/kg
- Fingolimod dose at P-QRS dissociation, in the two animals with Mobitz-Type-2 AV block (guinea pigs [3]; [10]): 0.051 mg/kg
- animals with Mobitz-Type-2 AV block (guinea pigs [3]; [10]): 2 out of 6
- changes in PR intervals (guinea pigs [3]; oral 1.0 mg/kg 14:0 lyso PG, then verapamil, then Fingolimod infusion, up to a dose of 200 μg/kg): modest changes in PR intervals
- IKr inhibition (IKr): approximately 64%
- AV block in human patients ([6]; Full Prescribing Information, Novartis): produce AV block from the first dose
- QT/QTc prolongation ([6]; administered alone in healthy, naive animals and clinical volunteers): limited QT/QTc prolongation
- QTc intervals ([6]; clinical patients taking verapamil along with Fingolimod): severely prolonged QTc intervals
- delays in repolarization ([6]; therapeutic doses, in a pair of individuals (EMA Assessment Report)): 60 ms
